# Experimental data reported in ChEMBL document CHEMBL4725221, “Thiazoles, Their Benzofused Systems, and Thiazolidinone Derivatives: Versatile and Promising Tools to Combat Antibiotic Resistance” (J Med Chem, 2020).
# What was measured:
# Escherichia coli [1] = test: Antibacterial activity against Escherichia coli ATCC 25922 after 20 hrs by cup plate method; assay type: functional
# Staphylococcus aureus [2] = test: Antibacterial activity against Staphylococcus aureus ATCC 29213 after 20 hrs by cup plate method; assay type: functional
# Klebsiella pneumoniae = test: Antibacterial activity against Klebsiella pneumoniae; assay type: functional
# Staphylococcus aureus [3] = test: Antibacterial activity against Staphylococcus aureus; assay type: functional
# Pseudomonas aeruginosa [4] = test: Antibacterial activity against Pseudomonas aeruginosa; assay type: functional
# Bacillus subtilis [5] = test: Antibacterial activity against Bacillus subtilis; assay type: functional
# Staphylococcus aureus [6] = test: Antibacterial activity against Staphylococcus aureus MTCC 3160 after 24 hrs; assay type: functional
# Escherichia coli [7] = test: Antibacterial activity against Escherichia coli MTCC 443 after 24 hrs; assay type: functional
# Bacillus subtilis [8] = test: Antibacterial activity against Bacillus subtilis MTCC 441 after 24 hrs; assay type: functional
# Pseudomonas aeruginosa [9] = test: Antibacterial activity against Pseudomonas aeruginosa ATCC 15442 by CLSI protocol based cup-plate agar diffusion method; assay type: functional
# Staphylococcus aureus [10] = test: Antibacterial activity against Staphylococcus aureus ATCC 6538 by CLSI protocol based microdilution method; assay type: functional, organism-based
# Staphylococcus aureus [11] = test: Antibacterial activity against Staphylococcus aureus ATCC 25923 by CLSI protocol based microdilution method; assay type: functional, organism-based
# Enterococcus faecalis [12] = test: Antibacterial activity against Enterococcus faecalis ATCC 19433 by NCCLS protocol based broth microdilution method
# Enterococcus faecalis [13] = test: Antibiofilm activity against Enterococcus faecalis; assay type: functional
# Enterococcus faecalis [14] = test: Antibacterial activity against Enterococcus faecalis; assay type: functional
# [15] = system: Staphylococcus saprophyticus; test: Antibacterial activity against Staphylococcus saprophyticus; assay type: functional
# Bacillus subtilis [16] = test: Antibacterial activity against Bacillus subtilis ATCC 10400 after 20 hrs by cup plate method; assay type: functional
# Enterococcus faecalis [17] = test: Antibacterial activity against Enterococcus faecalis ATCC 29212 after 20 hrs by cup plate method; assay type: functional
# Staphylococcus aureus [18] = test: Antibacterial activity against methicillin resistant Staphylococcus aureus 090 by NCCLS protocol based broth microdilution method; assay type: functional
# Staphylococcus aureus [19] = test: Antibacterial activity against Staphylococcus aureus ATCC 29213 by NCCLS protocol based broth microdilution method; assay type: functional
# Staphylococcus aureus [20] = test: Antibacterial activity against Staphylococcus aureus MLS16; assay type: functional
# Raoultella planticola = test: Antibacterial activity against Klebsiella planticola; assay type: functional
# Micrococcus luteus = test: Antibacterial activity against Micrococcus luteus; assay type: functional
# Escherichia coli [21] = test: Antibacterial activity against Escherichia coli; assay type: functional
smiles,measurement,setting,value
COc1ccc(-c2n[nH]c(N3C(=O)CS[C@H]3c3ccc(OC)cc3)n2)cc1,MIC,Escherichia coli [1],6 µg/mL
same,MIC,Staphylococcus aureus [2],128 µg/mL
O=[N+]([O-])c1ccc(-c2cc(-c3cc4ccccc4[nH]3)n(-c3nc(-c4ccc(F)cc4)cs3)n2)cc1,MIC,Klebsiella pneumoniae,12.5 µg/mL
same,MIC,Staphylococcus aureus [3],25 µg/mL
same,MIC,Pseudomonas aeruginosa [4],6.25 µg/mL
same,MIC,Bacillus subtilis [5],25 µg/mL
Cc1ccc(C2SCC(=O)N2NC(=O)CNC(=O)c2ccccc2)cc1 (stereo unspecified),MIC,Staphylococcus aureus [6],12.6 µg/mL
same,MIC,Escherichia coli [7],12.6 µg/mL
same,MIC,Bacillus subtilis [8],12.6 µg/mL
NCCn1cc(-c2nc(-c3c[nH]c4ccccc34)cs2)c2cc(Br)ccc21,MIC,Pseudomonas aeruginosa [9],7.8 µg/mL
same,IC50,Staphylococcus aureus [10],3.3 µg/mL
same,IC50,Staphylococcus aureus [11],4.4 µg/mL
Cl.Cl.Nc1ccc2sc(NC(=O)c3sc4cc(N)ccc4c3Cl)nc2c1,MIC,Enterococcus faecalis [12],16 µg/mL
Cl.Nc1ccc2sc(NC(=O)c3sc4ccccc4c3Cl)nc2c1,MIC,Enterococcus faecalis [12],8 µg/mL
COCCn1cc(-c2nc(-c3c[nH]c4ccccc34)cs2)c2cc(Br)ccc21,MIC,Pseudomonas aeruginosa [9],4.4 µg/mL
same,IC50,Staphylococcus aureus [10],9.4 µg/mL
same,IC50,Staphylococcus aureus [11],0.79 µg/mL
Clc1ccc(-c2csc(-c3cccc(-c4csc(-c5ccccc5)n4)c3)n2)cc1,MBIC,Enterococcus faecalis [13],0.016 mg/mL
same,MIC,Enterococcus faecalis [14],32 µg/mL
same,MIC,[15],2 µg/mL
COc1ccc(-c2n[nH]c(N3C(=O)CS[C@H]3c3ccc(F)cc3)n2)cc1,MIC,Escherichia coli [1],64 µg/mL
same,MIC,Staphylococcus aureus [2],128 µg/mL
O=C(CNC(=O)c1ccccc1)NN1C(=O)CSC1c1ccc(Br)cc1 (stereo unspecified),MIC,Staphylococcus aureus [6],6.51 µg/mL
same,MIC,Escherichia coli [7],12.2 µg/mL
same,MIC,Bacillus subtilis [8],47.8 µg/mL
Cn1cc(-c2csc(-c3cn(CCN)c4ccc(F)cc34)n2)c2ccccc21,MIC,Pseudomonas aeruginosa [9],3.9 µg/mL
same,IC50,Staphylococcus aureus [10],5.2 µg/mL
same,IC50,Staphylococcus aureus [11],0.5 µg/mL
COc1ccc(-c2csc(-c3cccc(-c4csc(-c5ccccc5)n4)c3)n2)cc1,MBIC,Enterococcus faecalis [13],0.004 mg/mL
same,MIC,Enterococcus faecalis [14],62 µg/mL
same,MIC,[15],125 µg/mL
COCCn1cc(-c2nc(-c3cn(C)c4ccccc34)cs2)c2cc(Br)ccc21,MIC,Pseudomonas aeruginosa [9],19.1 µg/mL
same,IC50,Staphylococcus aureus [10],11.2 µg/mL
same,IC50,Staphylococcus aureus [11],0.95 µg/mL
O=C(CNC(=O)c1ccccc1)NN1C(=O)CSC1c1ccccc1Cl (stereo unspecified),MIC,Staphylococcus aureus [6],12.5 µg/mL
same,MIC,Escherichia coli [7],6.24 µg/mL
same,MIC,Bacillus subtilis [8],6.24 µg/mL
O=[N+]([O-])c1ccc(-c2csc(-c3cccc(-c4csc(-c5ccccc5)n4)c3)n2)cc1,MBIC,Enterococcus faecalis [13],0.002 mg/mL
same,MIC,Enterococcus faecalis [14],62 µg/mL
same,MIC,[15],32 µg/mL
COc1ccc(-c2n[nH]c(N3C(=O)CS[C@H]3c3ccc(C)cc3)n2)cc1,MIC,Escherichia coli [1],32 µg/mL
same,MIC,Staphylococcus aureus [2],64 µg/mL
COc1ccc(-c2n[nH]c(N3C(=O)CS[C@H]3c3ccc(Cl)cc3)n2)cc1,MIC,Escherichia coli [1],16 µg/mL
same,MIC,Bacillus subtilis [16],16 µg/mL
same,MIC,Enterococcus faecalis [17],16 µg/mL
same,MIC,Staphylococcus aureus [2],8 µg/mL
Fc1ccc(-c2csc(-n3nc(-c4ccc(F)cc4)cc3-c3cc4ccccc4[nH]3)n2)cc1,MIC,Klebsiella pneumoniae,25 µg/mL
same,MIC,Staphylococcus aureus [3],50 µg/mL
same,MIC,Pseudomonas aeruginosa [4],25 µg/mL
same,MIC,Bacillus subtilis [5],50 µg/mL
Nc1ccc2c(Cl)c(C(=O)Nc3nc4ccccc4s3)sc2c1,MIC,Enterococcus faecalis [12],8 µg/mL
NCCn1cc(-c2nc(-c3c[nH]c4ccccc34)cs2)c2ccccc21,MIC,Pseudomonas aeruginosa [9],22.7 µg/mL
same,IC50,Staphylococcus aureus [10],9.7 µg/mL
same,IC50,Staphylococcus aureus [11],4.7 µg/mL
Cc1sc(-c2cccc(-c3csc(-c4ccccc4)n3)c2)nc1-c1ccccc1,MBIC,Enterococcus faecalis [13],0.004 mg/mL
same,MIC,Enterococcus faecalis [14],250 µg/mL
same,MIC,[15],> 1000 µg/mL
O=C(N[C@H](CO)[C@H](O)c1ccc([N+](=O)[O-])cc1)C(Cl)Cl [CHLORAMPHENICOL],MIC,Klebsiella pneumoniae,12.5 µg/mL
same,MIC,Staphylococcus aureus [3],6.25 µg/mL
same,MIC,Pseudomonas aeruginosa [4],6.25 µg/mL
same,MIC,Bacillus subtilis [5],6.25 µg/mL
COc1ccc(/C=N/Nc2nc3cccc(C)c3s2)c(OC)c1,MIC,Staphylococcus aureus [18],22 µg/mL
Cc1cccc2nc(N/N=C/c3ccc(O)cc3O)sc12,MIC,Staphylococcus aureus [18],20 µg/mL
Cc1cccc2nc(N/N=C/c3cc(O)c(O)c(O)c3)sc12,MIC,Staphylococcus aureus [18],18 µg/mL
O=C(Nc1nc2ccccc2s1)c1sc2cc([N+](=O)[O-])ccc2c1Cl,MIC,Enterococcus faecalis [12],16 µg/mL
Cl.Nc1ccc2c(Cl)c(C(=O)Nc3nc4ccccc4s3)sc2c1,MIC,Enterococcus faecalis [12],16 µg/mL
N#Cc1ccc(-c2csc(-c3cccc(-c4csc(-c5ccccc5)n4)c3)n2)cc1,MBIC,Enterococcus faecalis [13],0.002 mg/mL
same,MIC,Enterococcus faecalis [14],62 µg/mL
same,MIC,[15],16 µg/mL
c1ccc(-c2csc(-c3cccc(-c4csc(-c5ccccc5)n4)c3)n2)cc1,MBIC,Enterococcus faecalis [13],0.002 mg/mL
same,MIC,Enterococcus faecalis [14],125 µg/mL
same,MIC,[15],32 µg/mL
CCN(CC)c1ccc(C2SCC(=O)N2NC(=O)CNC(=O)c2ccccc2)cc1 (stereo unspecified),MIC,Staphylococcus aureus [6],12.4 µg/mL
same,MIC,Escherichia coli [7],3.07 µg/mL
same,MIC,Bacillus subtilis [8],12.4 µg/mL
O=[N+]([O-])c1ccc2nc(S)sc2c1,MIC,Staphylococcus aureus [19],12.5 µg/mL
FC(F)(F)c1ccc2nc(S)sc2c1,MIC,Staphylococcus aureus [19],3.12 µg/mL
Cc1ccc(-c2csc(N/N=C/c3cn(-c4nc5ccccc5s4)nc3-c3cc4ccccc4oc3=O)n2)cc1,MIC,Staphylococcus aureus [20],7.8 µg/mL
same,MIC,Raoultella planticola,3.9 µg/mL
same,MIC,Staphylococcus aureus [3],7.8 µg/mL
same,MIC,Pseudomonas aeruginosa [4],3.9 µg/mL
same,MIC,Micrococcus luteus,3.9 µg/mL
same,MIC,Escherichia coli [21],7.8 µg/mL
same,MIC,Bacillus subtilis [5],1.9 µg/mL
O=C(CNC(=O)c1ccccc1)NN1C(=O)CSC1c1cccc([N+](=O)[O-])c1 (stereo unspecified),MIC,Staphylococcus aureus [6],25.2 µg/mL
same,MIC,Escherichia coli [7],25.2 µg/mL
same,MIC,Bacillus subtilis [8],12.4 µg/mL
COc1ccc(-c2n[nH]c(N3C(=O)CS[C@H]3c3ccc([N+](=O)[O-])cc3)n2)cc1,MIC,Escherichia coli [1],32 µg/mL
same,MIC,Staphylococcus aureus [2],16 µg/mL
NCCn1cc(-c2nc(-c3c[nH]c4ccccc34)cs2)c2cc(F)ccc21,MIC,Pseudomonas aeruginosa [9],4.5 µg/mL
same,IC50,Staphylococcus aureus [10],6.3 µg/mL
same,IC50,Staphylococcus aureus [11],1.5 µg/mL
O=c1oc2c(Br)cccc2cc1-c1csc(N/N=C/c2cn(-c3nc4ccccc4s3)nc2-c2cc3ccccc3oc2=O)n1,MIC,Staphylococcus aureus [20],7.8 µg/mL
same,MIC,Raoultella planticola,7.8 µg/mL
same,MIC,Staphylococcus aureus [3],7.8 µg/mL
same,MIC,Pseudomonas aeruginosa [4],7.8 µg/mL
same,MIC,Micrococcus luteus,7.8 µg/mL
same,MIC,Escherichia coli [21],7.8 µg/mL
same,MIC,Bacillus subtilis [5],3.9 µg/mL
COc1ccc(-c2csc(N/N=C/c3cn(-c4nc5ccccc5s4)nc3-c3cc4ccccc4oc3=O)n2)cc1,MIC,Staphylococcus aureus [20],7.8 µg/mL
same,MIC,Raoultella planticola,7.8 µg/mL
same,MIC,Staphylococcus aureus [3],7.8 µg/mL
same,MIC,Pseudomonas aeruginosa [4],7.8 µg/mL
same,MIC,Micrococcus luteus,7.8 µg/mL
same,MIC,Escherichia coli [21],7.8 µg/mL
same,MIC,Bacillus subtilis [5],7.8 µg/mL
